Measurements as given in patent US20230190703A1, “TREATING SAR-COV-2 RELATED HEALTH PROBLEMS” (priority 2021, published 2023).

Columns and labels:
colo 320 cells [1] = test system: colo 320 cells
colo 320 cells [2] = type: cell-based, human
U937 cells [3] = type: cell-based, human
U937 cells [4] = assay: caspase 9 assay; type: cell-based, human; details: with SPK
Description: (§1) The cells used in this example originated from the cell line U937 cells and were purchased from ATCC.
The cells were treated in a 6-well plate with the treatment plan of control, A1 10 μM, A2 10 μM, SPK10 μM, A1+SPK10 μM, and A2+SPK10 μM for 24 hours and collected in a 1.5 ml tube. Then, Colo cells were lysed by freezing and thawing 4 times. Then, 50 μl of caspase assay buffer will be added to every well of an empty 96-well plate. Also, 50 μl of lysis buffer will be added to the blank wells and 45 μl added to the treatment and control wells. 5 μl of lysed cells will be added to each treatment well with 5 μl of pNA Substrate Solution indeed to every well. The plate will then be taken for a reading at zero time point using a microplate reader at 405 nm. Afterwards, the plate will be covered and incubated at 37 degrees Celsius. […] The data from the Caspase Assay will be analyzed by calculating the change in optical density per minute (ΔOD). The ΔOD is obtained through subtracting the sample's start OD from the sample's final OD to determine the overall change in absorbance. The ΔOD/minutes is calculated by taking the ΔOD and dividing by the overall time in minutes. The ΔOD per minute of each sample is compared to the control by a percent change to determine the activity of caspase and apoptosis. The OD of the blank samples are subtracted from the OD of the treated sample to normalize the data and ensure minimal interference.

monocyte = details: literature; cited from earlier work
U937 cells [5] = assay: LDH assay (percent cytotoxicity); type: cell-based, human; details: for cytotoxicity decrease: 10 μM, cytotoxicity induced by SPK; for effect on SPK-induced cytotoxicity at higher concentration: as concentrations increased (100 μM); for effect on cytotoxic effect of SPK (LDH): combined with SPK
Description: as §1
10 μls of chemicals provided by ATCC were added into a 96-well plate with the treatment plan of control, control, control, SPK 10 μM, A1 10 μM, A1 100 μM, A2 10 μM, A2 100 μM, SPK+A1 10 μM, SPK+A1 100 μM, SPK+A2 10 μM, and SPK+A2 100 μM. After incubation for 48 hours, 30 μls of media from each well were removed and added into another 96 well plate labeled as released LDH. 30 microliters of LDH substrate mix were added to the released LDH plate to measure the released LDH by the cells from the treatments. This plate was left at room temperature and away from direct light for 30 minutes. After 30 minutes, 30 μls of LDH stop solution was added to each well to terminate the assay and prevent further color changes. The plate was placed in a microplate reader and optical density (OD) was determined for each sample at 490 nm. Another reading at 655 nm was performed to determine if there was any background interference with the reading. Then, 10 μls of LDH lysis buffer were added to the original plate containing the cells to lyse all the cells and to measure a total or maximum LDH for each sample. Another empty 96 well plate was then labeled total LDH. 30 μls of the cell lysate and media were transferred from the original plate containing the lysed cells into the empty 96 well plate labeled as total LDH. 30 μls of LDH substrate mix were added to each sample to measure the total LDH. The plate was left at room temperature for 30 minutes away from direct light. After the 30 minutes, 30 μls of LDH stop solution were added to each well to terminate the experiment. The OD of the total LDH plate was measured following the same measurement steps for the released LDH. The data collected from the 490 nm wavelength was subtracted by the data collected from the 655 nm wavelength to find the corrected OD for each sample's released and total LDH. The percent cytotoxicity was later calculated by the equation: (Sample OD released LDH−control OD released LDH)/(Sample OD total LDH−control OD released LDH)*100 and T-tests were applied to each group to measure significance for percent cytotoxicity.

Row | Compound | mitigation of SPK induced cytotoxicity (colo 320 cells [1]) | mitigation of SPK induced caspase apoptosis (colo 320 cells [2]) | decrease in adhesion molecule expression (U937 cells [3]) | decrease of cell adhesion (U937 cells [3]) | effect on adhesion molecule expression, in words (U937 cells [3]) | decrease of caspase activity that was increased by SPK (U937 cells [4]) | effect on SPK caused apoptosis (caspase) (U937 cells [4]) | monocyte cell adhesion (monocyte) | cytotoxicity decrease (U937 cells [5]) | effect on SPK-induced cytotoxicity at higher concentration (U937 cells [5]) | effect on cytotoxic effect of SPK (LDH) (U937 cells [5])
1 | C[C@H]1[C@H](OC(=O)CCC(=O)O)O[C@@H]2O[C@@]3(C)CC[C@H]4[C@H](C)CC[C@@H]1[C@@]24OO3 [A2, Artesunate] | changed the cytotoxicity to a negative value | remediate the increase in caspase apoptosis to a negative level | around 68% | around 70% | significantly decreased the adhesion molecule expression | ~70% | decrease SPK caused apoptosis significantly | inhibit monocyte cell adhesion | around 0.8% | the effectiveness decreased | reversed the cytotoxic effect of SPK from a positive value to a negative value
2 | C[C@@H]1CC[C@H]2[C@@H](C)C(=O)O[C@@H]3O[C@@]4(C)CC[C@@H]1[C@]32OO4 [A1, Artemisinin] | changed the cytotoxicity to a negative value | remediate the increase in caspase apoptosis to a negative level | around 70% | about 73% | significantly decreased the adhesion molecule expression | around 68% | decrease SPK caused apoptosis significantly | inhibit monocyte cell adhesion | around 2.4% | the effectiveness decreased | reversed the cytotoxic effect of SPK from a positive value to a negative value
